Data set [1] has as its system Radical scavenging activity. Description: Antioxidant activity assessed as DPPH radical scavenging at 0.02 mg/ml measured at 50 min by spectrophotometric analysis relative to control. It counts as functional. Background: The DPPH test is a chemical assay of radical scavenging.
The nature of data set [2]: Antioxidant activity assessed as hydroxyl radical scavenging by resonance scattering method. The class given is functional.
The subject of data set [3] is HT-29. Description: Growth inhibition of Homo sapiens (human) HT-29 cells assessed as inhibition of [3H]hypoxanthine incorporation at higher concentration incubated for 18 hr prior to [3H]hypoxanthine addition measured after 4 to 6 hr. The class given is functional, cell-based.
Data set [4] deals with HT-29. Description: Induction of Homo sapiens (human) HT-29 cell proliferation assessed as [3H]hypoxanthine incorporation at 0.25 to 2 mg/ml incubated for 18 hr prior to [3H]hypoxanthine addition measured after 4 to 6 hr. The class given is cell-based.
For data set [5], the system named is Radical scavenging activity. In words: Antioxidant activity assessed as DPPH radical scavenging at 0.05 mg/ml measured at 50 min by spectrophotometric analysis relative to control. The class given is functional.
Data set [6] is described as follows: Antioxidant activity assessed as potassium ferricyanide reduction at 0.5 mg/ml after 20 min by spectrophotometric analysis. It counts as functional.
In data set [7] the test system is Radical scavenging activity. In words: Antioxidant activity assessed as DPPH radical scavenging at 0.08 mg/ml measured at 50 min by spectrophotometric analysis relative to control. The class given is functional.
Data set [8] deals with Radical scavenging activity. Description: Antioxidant activity assessed as DPPH radical scavenging at 0.02 to 0.1 mg/ml measured within 10 min by spectrophotometric analysis. It counts as functional.
A short description of data set [9]: Antioxidant activity assessed as reduction of Mo(6) in phophomolybdenum at 0.1 mg/ml after 150 min by spectrophotometric analysis. The class given is functional.
The nature of data set [10]: Antioxidant activity assessed as potassium ferricyanide reduction at 0.05 mg/ml after 20 min by spectrophotometric analysis. It counts as functional.
The nature of data set [11]: Antioxidant activity assessed as reduction of Mo(6) in phophomolybdenum at 0.5 mg/ml after 150 min by spectrophotometric analysis. It counts as functional.
Data set [12] relates to Radical scavenging activity. In words: Antioxidant activity assessed as DPPH radical scavenging at 0.5 mg/ml measured at 50 min by spectrophotometric analysis relative to control. The class given is functional.

The IC50 is the concentration that gives 50% inhibition.

Molecules are shown by their SMILES. In brackets after ≈: the same amount, converted by molar mass. Activity calls are given as the source filed them. No cut-off for these calls is given here.

As for `O=c1ccc2cc(O)c(O)cc2o1` [ESCULETIN], the Activity is 28.1% in data set [1], “Toxic” in data set [4], 59.9% in [5] and 79.7% in [7]. In addition, the IC50 in data set [2] was 0.091 µg/mL (≈ 0.511 µM). For the same compound, the “growth inhibition (GI)” value in data set [3] is “Dose-dependent effect”. Further, the outcome in data set [6], in [8], in data set [9] and in data set [10] was Active.
Regarding `Cc1cc(C(C)(C)C)c(O)c(C(C)(C)C)c1` [BUTYLATED HYDROXYTOLUENE], the IC50 in [2] came out at 2.883 µg/mL (≈ 13.1 µM). Moreover, the outcome in [11], in data set [6] and in data set [10] was Active. Besides, the Activity in data set [12] amounted to 47.6%.

Source of the values: ChEMBL document CHEMBL3045745, “Antioxidant activity and inhibition effect on the growth of human colon carcinoma (HT-29) cells of esculetin from Cortex Fraxini” (Med Chem Res, 2011).
